What was measured:
Assay type in all cases: in vivo, New Zealand White rabbits
[1] = system: female ovariectomized rabbits; assay: Uterus weight (estrogenic activity), cholesterol fed rabbit model; conditions: for Uterus weight per 100 grams body weight: cholesterol diet, OVX, necropsy at 20 weeks
Experimental: (§1) The model is considered relevant to the human atherosclerotic process, because the cellular events occurring during the development of the atherosclerotic lesions during the atherogenic diet are similar to those observed in different stages of atherosclerotic processes in coronary arteries.
An experiment was performed with 7 groups of sexually mature, virgin female New Zealand White rabbits (Harlan, Zeist, The Netherlands), age 7-9 months and weighing approximately 3 kg (number of […] per group: 13-14). During the acclimatization period the rabbits were fed a diet of standard commercial rabbit chow LKK20 (Hope Farms, Woerden, The Netherlands). Three weeks prior to the start of the experiment the animals were anaesthetized and underwent bilateral ovariectomy (OVX) or were sham operated. After three weeks, at the start of the experiment, the rabbits were randomized over the treatment groups. In all animals de-endothelialisation of a segment of the left carotid artery was applied by using the air-drying technique (Fishman, J.A. et al., "Endothelial regeneration in the rat carotid artery and the significance of endothelial denudation in the pathogenesis of myointimal thickening", Lab. Invest. 1975, 32, 339-351; and Lafont, A. et al., "Restenosis and experimental angioplasty: Intimal, medial and adventitial changes associated with constructive remodeling", Circulation Research, 1995, 76, 996-1002)
The animals were randomly allocated into 7 experimental groups using a randomized block design. The groups were fed an atherogenic diet (commercial rabbit chow (LKK20) enriched with 0.4 grams cholesterol, 3.75 grams coconut oil and 3.75 grams peanut oil per 100 grams). One group was fed the standard rabbit chow (LKK20). Food intake was restricted to 80 grams daily.
The treatments (Table I) were daily administered orally as a tablet, prepared as in Example 1. Groups 1, 2 and 3 were on a daily placebo treatment. Groups 4-5 were treated with 7α-methyl-17α-ethynyl-17β-hydroxy-estra-5(10)-en-3-one (OD-14; tibolone; 6 or 2 mg daily); group 6 with 17β-estradiol (4 mg daily). Group 7 was on treatment with 17β-estradiol decanoate (150 µg in 1 ml arachis oil injected subcutaneously once a week).
(§2) During the experiment blood samples were drawn out of the central ear artery after sedation with Hypnorm (0.1 ml i.m.) (Janssen Pharmaceutics, Beerse, Belgium) before the daily treatment, at week 4,8,12,16 and 20, to monitor the plasma cholesterol levels and to measure, at week 17, plasma estradiol levels and plasma tibolone levels. Twenty weeks after the start of the experiment animals were anaesthetized by an i.m. injection of Hypnorm (0.5 ml/kg). After blood sampling the rabbits were killed by exsanguination and the aortic arch, uterus and carotid artery removed for further analyses.
In addition to example 2 an additional experiment was performed with two lower doses of Org OD14 and a higher dose of estradiol decanoate. […] The procedures were identical to those in example 2.
(§3) Three weeks prior to the start of the experiment the animals were ovariectomized. At the start of the experiment the carotid artery was de-endothelialised using the air-drying technique. The normal rabbit chow was replaced by the atherogenic diet except for the control group which received during the experiment the normal rabbit chow.
The treatments (table II) of group 1, 2, 3 and 4 were daily administered orally as a tablet, prepared as in example 1. The doses of Org OD14 per tablet, however, were 0.6 mg and 0.15 mg respectively. Group 5 was on treatment with 17β-estradiol decanoate (300 µg in 1 ml arachis oil injected subcutaneously once a week). Twenty weeks after the start of the experiment was ended in the same manner as described in example 2.
After 20 weeks of diet and of daily treatment, necropsy was performed to determine the accumulation of cholesterol and fatty streaks in the aortic arch and the advanced lesions in the carotid artery. […]

[2] = system: female ovariectomized rabbits; assay: Vessel wall cholesterol measurement in the aortic arch; conditions: for Cholesterol level in aortic arch: cholesterol diet, OVX, necropsy at 20 weeks
Experimental: as §1
(§4) An experiment was performed with 7 groups of sexually mature, virgin female New Zealand White rabbits (Harlan, Zeist, The Netherlands), age 7-9 months and weighing approximately 3 kg (number of […] per group: 13-14). During the acclimatization period the rabbits were fed a diet of standard commercial rabbit chow LKK20 (Hope Farms, Woerden, The Netherlands). Three weeks prior to the start of the experiment the animals were anaesthetized and underwent bilateral ovariectomy (OVX) or were sham operated. After three weeks, at the start of the experiment, the rabbits were randomized over the treatment groups.
(§5) The animals were randomly allocated into 7 experimental groups using a randomized block design. […] One group was fed the standard rabbit chow (LKK20). Food intake was restricted to 80 grams daily.
(§6) Groups 1, 2 and 3 were on a daily placebo treatment. Groups 4-5 were treated with 7α-methyl-17α-ethynyl-17β-hydroxy-estra-5(10)-en-3-one (OD-14; tibolone; 6 or 2 mg daily); group 6 with 17β-estradiol (4 mg daily). Group 7 was on treatment with 17β-estradiol decanoate (150 µg in 1 ml arachis oil injected subcutaneously once a week).
as §2, §3
(§7) Group 5 was on treatment with 17β-estradiol decanoate (300 µg in 1 ml arachis oil injected subcutaneously once a week).
The amount of protein in the tissue was determined by the method of Lowry.

[3] = system: female ovariectomized rabbits; assay: Plasma cholesterol levels, cholesterol fed rabbit model; conditions: for Mean plasma cholesterol exposure: cholesterol diet, OVX, 20 weeks
Experimental: as §1, §4, §5, §6, §2, §3, §7

[4] = Example 2, Group 4: 6 mg orally daily
[5] = Example 2, Group 5: 2 mg orally daily
[6] = Example 3: 0.15 mg orally once daily
[7] = Example 3: 0.6 mg orally once daily

C#C[C@]1(O)CC[C@H]2[C@@H]3[C@H](C)CC4=C(CCC(=O)C4)[C@H]3CC[C@@]21C [Org OD14, 7α-methyl-17α-ethynyl-17β-hydroxy-estra-5(10)-en-3-one]
Uterus weight per 100 grams body weight [1, 4]: 0.24 ±0.06 per 100 grams body weight
Uterus weight per 100 grams body weight [1, 5]: 0.29 ±0.03 per 100 grams body weight
uterus weight increase (estrogenic activity, in words) ([1]; Example 2: Org OD14 2 and 6 mg per day): to a similar extent as both estradiol treatments
increase of uterus weight ([1]; Example 3, text: Org OD14 (0.15 mg dose per Table IV), versus placebo 0.054): 144%
uterus weight ([1]; Example 3, text: Org OD14 (0.15 mg dose per Table IV), placebo 0.054): 0.132 grams per 100 grams body weigh
Uterus weight per 100 grams body weight [1, 6]: 0.132 ±0.013 per 100 grams body weight
Uterus weight per 100 grams body weight [1, 7]: 0.224 ±0.016 per 100 grams body weight
Cholesterol level in aortic arch [2, 4]: 52 ± 9 nmol/mg protein
Cholesterol level in aortic arch [2, 5]: 61 ± 11 nmol/mg protein
cholesterol accumulation in the aortic arch (in words) ([2]; Example 2: Org OD14 2 and 6 mg, E2 4 mg orally daily): completely prevented cholesterol accumulation
Cholesterol level in aortic arch [2, 6]: 297 ± 67 nmol/mg protein
Cholesterol level in aortic arch [2, 7]: 97 ± 23 nmol/mg protein
Mean plasma cholesterol exposure [3, 4]: 11.2 ± 1.5 mmol/L/day
Mean plasma cholesterol exposure [3, 5]: 9.0 ± 1.3 mmol/L/day
plasma cholesterol levels (in words) ([3]; Example 2: Org OD14 2 and 6 mg, E2 4 mg orally daily, E2D 150 µg s.c. weekly): strongly reduced the plasma cholesterol levels
Mean plasma cholesterol exposure [3, 6]: 20.7 ± 1.5 mmol/L/day
Mean plasma cholesterol exposure [3, 7]: 12.8 ± 1.2 mmol/L/day
